Reference: paper PMC6429214, “Design, Synthesis and Biological Evaluation of Isoxazole-Based CK1 Inhibitors Modified with Chiral Pyrrolidine Scaffolds” (Molecules, 2019)

How the values were obtained:
Test in all cases: 33PanQinase panel
Type in all cases: biochemical
SGK1 = target: T1, SGK1 (Homo sapiens, UniProt O00141); settings: SGK1, 1 µM; read-out: Residual Activity (%)
T1 construct: purchased ProQinase
Protocol: (§1) Figure 5 Dendrogram representation of the selectivity profile of 29d at a concentration of 1 μM in a panel of 320 wild-type kinases (ProQinase, Freiburg, Germany). The residual kinase activity was determined compared to DMSO control. Images were generated using TREEspot Software Tool, DISCOVERX CORPORATION 2010. […]
(§2) Table S2. Selectivity profile of compound 29d. The inhibitor has been screened at a concentration of 1 µM over a panel of 320 wild-type protein kinases by ProQinase GmbH (Freiburg, Germany) using an activity-based radiometric 33PanQinase® assay. Results are presented as percentage of residual kinase activity relative to […]
(§3) control. The final DMSO concentration was 1 % in each reaction-mix. Classification of protein kinase families refers to Manning et al. (Manning, G.; Whyte, D. B.; Martinez, R.; Hunter, T.; Sudarsanam, S. The Protein Kinase Complement of the Human Genome. Science 2002, 298, 1912–1934): AGC = containing PKA, PKG, PKC families; […] = containing Cdk, MAPK, GSK3, CLK families; STE = homologs of yeast sterile 7, sterile 11, sterile 20 kinases; TK = tyrosine kinase; TKL = tyrosine kinase-like.
(§4) Kinase name Kinase family Residual Activity (%)

PAK4 = target: T2, PAK4 (Homo sapiens, UniProt O96013); settings: PAK4, 1 µM; read-out: Residual Activity (%)
T2 construct: purchased ProQinase
Protocol: as §1, §2, §3, §4

BMX = target: T3, BMX (Homo sapiens, UniProt P51813); settings: read-out: Residual Activity (%)
T3 construct: purchased ProQinase
Protocol: as §1, §2, §3, §4

HIPK3 = target: T4, HIPK3 (Homo sapiens, UniProt Q9H422); settings: HIPK3, 1 µM; read-out: Residual Activity (%)
T4 construct: purchased ProQinase
Protocol: as §1, §2, §3, §4

MEK1 = target: T5, MEK1 (Homo sapiens, UniProt Q02750); settings: MEK1, 1 µM; read-out: Residual Activity (%)
T5 construct: purchased ProQinase
Protocol: as §1, §2, §3, §4

ACK1 = target: T6, ACK1 (Homo sapiens, UniProt Q07912); settings: ACK1, 1 µM; read-out: Residual Activity (%)
T6 construct: purchased ProQinase
Protocol: as §1, §2, §3, §4

PKC-iota = target: T7, PKC-iota (Homo sapiens, UniProt P41743); settings: read-out: Residual Activity (%)
T7 construct: purchased ProQinase
Protocol: as §1, §2, §3, §4

MLK4 = target: T8, MLK4 (Homo sapiens, UniProt Q5TCX8); settings: MLK4, 1 µM; read-out: Residual Activity (%)
T8 construct: purchased ProQinase
Protocol: as §1, §2, §3, §4

JAK3 = target: T9, JAK3 (Homo sapiens, UniProt P52333); settings: JAK3, 1 µM; read-out: Residual Activity (%)
T9 construct: purchased ProQinase
Protocol: as §1, §2, §3, §4

MYLK2 = target: T10, MYLK2 (Homo sapiens, UniProt Q9H1R3); settings: MYLK2, 1 µM; read-out: Residual Activity (%)
T10 construct: purchased ProQinase
T10 sequence (Q9H1R3 whole entry): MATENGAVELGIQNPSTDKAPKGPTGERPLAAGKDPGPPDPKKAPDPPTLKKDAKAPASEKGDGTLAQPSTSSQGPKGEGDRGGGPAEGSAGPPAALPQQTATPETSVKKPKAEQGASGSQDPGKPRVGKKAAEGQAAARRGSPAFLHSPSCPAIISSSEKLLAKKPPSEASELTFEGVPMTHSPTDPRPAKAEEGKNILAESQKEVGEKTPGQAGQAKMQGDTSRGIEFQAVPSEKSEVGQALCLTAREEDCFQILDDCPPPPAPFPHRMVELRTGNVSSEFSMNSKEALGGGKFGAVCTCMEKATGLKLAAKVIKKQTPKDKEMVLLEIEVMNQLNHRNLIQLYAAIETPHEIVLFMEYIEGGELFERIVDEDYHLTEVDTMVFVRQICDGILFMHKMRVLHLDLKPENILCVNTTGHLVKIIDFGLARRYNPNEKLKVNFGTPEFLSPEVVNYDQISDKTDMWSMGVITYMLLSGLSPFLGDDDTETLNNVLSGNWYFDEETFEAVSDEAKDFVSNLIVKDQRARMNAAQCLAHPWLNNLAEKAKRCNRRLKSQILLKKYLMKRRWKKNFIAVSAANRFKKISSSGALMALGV
Protocol: as §1, §2, §3, §4

PRK2 = target: T11, PRK2 (Homo sapiens, UniProt Q16513); settings: PRK2, 1 µM; read-out: Residual Activity (%)
T11 construct: purchased ProQinase
T11 sequence (Q16513 whole entry): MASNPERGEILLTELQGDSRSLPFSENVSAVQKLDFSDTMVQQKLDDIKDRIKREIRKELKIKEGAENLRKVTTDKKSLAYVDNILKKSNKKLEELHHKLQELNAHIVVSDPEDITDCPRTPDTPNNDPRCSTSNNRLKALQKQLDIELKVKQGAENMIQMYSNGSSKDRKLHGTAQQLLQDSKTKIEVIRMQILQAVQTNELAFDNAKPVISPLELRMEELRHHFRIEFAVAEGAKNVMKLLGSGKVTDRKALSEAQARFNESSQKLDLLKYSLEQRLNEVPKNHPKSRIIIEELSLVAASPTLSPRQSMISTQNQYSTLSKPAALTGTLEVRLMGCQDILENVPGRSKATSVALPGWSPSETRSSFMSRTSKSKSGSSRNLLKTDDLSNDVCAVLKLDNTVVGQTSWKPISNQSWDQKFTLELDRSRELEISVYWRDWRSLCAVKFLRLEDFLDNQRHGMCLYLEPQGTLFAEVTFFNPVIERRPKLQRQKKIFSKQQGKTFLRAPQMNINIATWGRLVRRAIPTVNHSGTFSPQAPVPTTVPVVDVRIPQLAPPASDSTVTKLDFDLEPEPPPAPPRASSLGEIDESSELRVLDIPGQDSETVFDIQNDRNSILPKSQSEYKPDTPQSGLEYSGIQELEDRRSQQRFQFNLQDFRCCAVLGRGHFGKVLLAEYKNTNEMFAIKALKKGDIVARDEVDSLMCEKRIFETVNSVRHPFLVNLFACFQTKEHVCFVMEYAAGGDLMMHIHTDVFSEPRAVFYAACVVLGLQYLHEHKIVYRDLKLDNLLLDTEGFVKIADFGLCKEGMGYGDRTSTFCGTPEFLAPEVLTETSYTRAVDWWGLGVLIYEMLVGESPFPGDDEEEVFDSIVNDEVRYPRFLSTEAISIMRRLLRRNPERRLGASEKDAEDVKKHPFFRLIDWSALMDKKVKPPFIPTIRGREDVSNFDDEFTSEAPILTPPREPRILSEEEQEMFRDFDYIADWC
Protocol: as §1, §2, §3, §4

PAK2 = target: T12, PAK2 (Homo sapiens, UniProt Q13177); settings: PAK2, 1 µM; read-out: Residual Activity (%)
T12 construct: purchased ProQinase
Protocol: as §1, §2, §3, §4

p38-delta = target: T13, p38-delta (Homo sapiens, UniProt O15264); settings: read-out: Residual Activity (%)
T13 construct: purchased ProQinase
Protocol: as §1, §2, §3, §4

JNK3 = target: T14, JNK3 (Homo sapiens, UniProt P53779); settings: JNK3, 1 µM; read-out: Residual Activity (%)
T14 construct: purchased ProQinase
Protocol: as §1, §2, §3, §4

CLK2 = target: T15, CLK2 (Homo sapiens, UniProt P49760); settings: CLK2, 1 µM; read-out: Residual Activity (%)
T15 construct: purchased ProQinase
Protocol: as §1, §2, §3, §4

PDGFR-beta = target: T16, PDGFR-beta (Homo sapiens, UniProt P09619); settings: read-out: Residual Activity (%)
T16 construct: purchased ProQinase
Protocol: as §1, §2, §3, §4

IRAK1 = target: T17, IRAK1 (Homo sapiens, UniProt P51617); settings: IRAK1, 1 µM; read-out: Residual Activity (%)
T17 construct: purchased ProQinase
Protocol: as §1, §2, §3, §4

DAPK1 = target: T18, DAPK1 (Homo sapiens, UniProt P53355); settings: DAPK1, 1 µM; read-out: Residual Activity (%)
T18 construct: purchased ProQinase
T18 sequence (P53355 whole entry): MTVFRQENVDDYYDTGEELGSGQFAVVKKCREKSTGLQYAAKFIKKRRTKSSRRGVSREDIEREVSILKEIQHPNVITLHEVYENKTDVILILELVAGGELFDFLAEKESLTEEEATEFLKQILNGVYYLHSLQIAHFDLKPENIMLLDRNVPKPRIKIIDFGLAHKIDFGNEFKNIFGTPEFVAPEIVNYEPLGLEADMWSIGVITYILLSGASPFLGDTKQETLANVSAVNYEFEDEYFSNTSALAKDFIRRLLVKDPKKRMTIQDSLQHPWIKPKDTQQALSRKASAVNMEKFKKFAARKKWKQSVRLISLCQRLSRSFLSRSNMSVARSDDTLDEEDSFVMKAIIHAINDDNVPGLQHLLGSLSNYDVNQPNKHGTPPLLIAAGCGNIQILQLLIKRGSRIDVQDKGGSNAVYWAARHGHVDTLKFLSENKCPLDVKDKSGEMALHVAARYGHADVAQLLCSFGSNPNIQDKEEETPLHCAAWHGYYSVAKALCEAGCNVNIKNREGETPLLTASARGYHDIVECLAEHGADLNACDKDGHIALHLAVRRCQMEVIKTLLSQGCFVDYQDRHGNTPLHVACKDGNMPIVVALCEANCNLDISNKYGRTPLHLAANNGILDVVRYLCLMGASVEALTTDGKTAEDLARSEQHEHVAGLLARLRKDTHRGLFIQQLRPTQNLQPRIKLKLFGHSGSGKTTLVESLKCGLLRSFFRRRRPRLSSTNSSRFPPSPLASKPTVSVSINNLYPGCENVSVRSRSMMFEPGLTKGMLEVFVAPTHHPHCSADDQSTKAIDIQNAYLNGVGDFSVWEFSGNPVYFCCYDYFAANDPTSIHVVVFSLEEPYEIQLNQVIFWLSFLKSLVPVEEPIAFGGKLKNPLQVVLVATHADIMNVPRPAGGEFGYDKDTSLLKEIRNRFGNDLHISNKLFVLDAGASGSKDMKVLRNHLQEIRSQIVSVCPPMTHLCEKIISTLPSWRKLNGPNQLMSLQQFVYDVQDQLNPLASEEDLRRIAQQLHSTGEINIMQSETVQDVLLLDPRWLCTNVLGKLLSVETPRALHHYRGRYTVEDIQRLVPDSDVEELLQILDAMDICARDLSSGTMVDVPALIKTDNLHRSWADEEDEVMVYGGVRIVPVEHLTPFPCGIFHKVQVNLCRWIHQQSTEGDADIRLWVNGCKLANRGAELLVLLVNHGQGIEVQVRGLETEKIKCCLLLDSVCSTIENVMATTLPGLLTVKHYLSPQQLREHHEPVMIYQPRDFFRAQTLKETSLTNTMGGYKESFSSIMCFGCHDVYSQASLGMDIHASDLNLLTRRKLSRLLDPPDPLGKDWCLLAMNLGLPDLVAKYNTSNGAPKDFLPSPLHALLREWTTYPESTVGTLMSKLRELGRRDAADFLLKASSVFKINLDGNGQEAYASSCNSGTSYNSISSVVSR
Protocol: as §1, §2, §3, §4

ROS = target: T19, ROS (Homo sapiens, UniProt P08922); settings: read-out: Residual Activity (%)
T19 construct: purchased ProQinase
Protocol: as §1, §2, §3, §4

AKT1 aa106-480 = target: T20, AKT1 aa106-480 (Homo sapiens, UniProt P31749); settings: AKT1 aa106-480, 1 µM; read-out: Residual Activity (%)
T20 construct: purchased ProQinase
Protocol: as §1, §2, §3, §4

STK39 = target: T21, STK39 (Homo sapiens, UniProt Q9UEW8); settings: STK39, 1 µM; read-out: Residual Activity (%)
T21 construct: purchased ProQinase
Protocol: as §1, §2, §3, §4

HIPK1 = target: T22, HIPK1 (Homo sapiens, UniProt Q86Z02); settings: HIPK1, 1 µM; read-out: Residual Activity (%)
T22 construct: purchased ProQinase
T22 sequence (Q86Z02 whole entry): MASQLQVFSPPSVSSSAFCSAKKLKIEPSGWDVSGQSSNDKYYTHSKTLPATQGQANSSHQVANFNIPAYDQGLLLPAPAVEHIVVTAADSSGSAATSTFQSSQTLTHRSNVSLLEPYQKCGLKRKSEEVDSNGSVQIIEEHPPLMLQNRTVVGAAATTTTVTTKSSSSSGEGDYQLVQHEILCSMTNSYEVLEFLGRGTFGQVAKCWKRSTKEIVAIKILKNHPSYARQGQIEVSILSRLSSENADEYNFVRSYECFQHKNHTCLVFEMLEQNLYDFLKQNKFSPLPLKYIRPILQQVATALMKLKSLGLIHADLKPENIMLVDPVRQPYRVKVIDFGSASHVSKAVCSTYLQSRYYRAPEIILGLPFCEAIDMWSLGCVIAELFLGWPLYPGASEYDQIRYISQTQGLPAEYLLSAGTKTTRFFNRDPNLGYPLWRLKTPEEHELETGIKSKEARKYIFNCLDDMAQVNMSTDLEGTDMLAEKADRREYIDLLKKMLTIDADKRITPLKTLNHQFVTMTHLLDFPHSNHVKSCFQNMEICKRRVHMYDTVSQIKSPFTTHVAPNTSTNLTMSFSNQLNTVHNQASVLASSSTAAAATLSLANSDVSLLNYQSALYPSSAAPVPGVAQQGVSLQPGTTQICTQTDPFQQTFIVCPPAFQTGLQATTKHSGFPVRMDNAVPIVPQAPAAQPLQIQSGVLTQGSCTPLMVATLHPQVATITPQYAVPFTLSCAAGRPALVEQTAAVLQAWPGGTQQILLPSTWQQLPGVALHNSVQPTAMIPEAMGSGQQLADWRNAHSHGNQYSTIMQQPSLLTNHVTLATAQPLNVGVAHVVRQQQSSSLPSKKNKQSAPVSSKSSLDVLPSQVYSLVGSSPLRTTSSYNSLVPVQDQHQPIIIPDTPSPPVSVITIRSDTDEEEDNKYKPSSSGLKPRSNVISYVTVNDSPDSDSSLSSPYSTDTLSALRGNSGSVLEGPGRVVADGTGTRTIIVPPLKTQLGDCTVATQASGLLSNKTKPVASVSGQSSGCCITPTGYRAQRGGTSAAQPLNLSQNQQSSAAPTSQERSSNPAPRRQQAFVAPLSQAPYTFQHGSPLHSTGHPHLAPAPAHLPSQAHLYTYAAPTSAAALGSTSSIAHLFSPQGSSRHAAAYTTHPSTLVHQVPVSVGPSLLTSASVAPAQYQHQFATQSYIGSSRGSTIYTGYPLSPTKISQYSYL
Protocol: as §1, §2, §3, §4

RPS6KA5 = target: T23, RPS6KA5 (Homo sapiens, UniProt O75582); settings: RPS6KA5, 1 µM; read-out: Residual Activity (%)
T23 construct: purchased ProQinase
Protocol: as §1, §2, §3, §4

IKK-epsilon = target: T24, IKK-epsilon (Homo sapiens, UniProt Q14164); settings: read-out: Residual Activity (%)
T24 construct: purchased ProQinase
Protocol: as §1, §2, §3, §4

NEK7 = target: T25, NEK7 (Homo sapiens, UniProt Q8TDX7); settings: NEK7, 1 µM; read-out: Residual Activity (%)
T25 construct: purchased ProQinase
Protocol: as §1, §2, §3, §4

SRPK1 = target: T26, SRPK1 (Homo sapiens, UniProt Q96SB4); settings: SRPK1, 1 µM; read-out: Residual Activity (%)
T26 construct: purchased ProQinase
Protocol: as §1, §2, §3, §4

ACV-R2B = target: T27, ACV-R2B (Homo sapiens, UniProt Q13705); settings: read-out: Residual Activity (%)
T27 construct: purchased ProQinase
Protocol: as §1, §2, §3, §4

EPHA3 = target: T28, EPHA3 (Homo sapiens, UniProt P29320); settings: EPHA3, 1 µM; read-out: Residual Activity (%)
T28 construct: purchased ProQinase
Protocol: as §1, §2, §3, §4

LIMK2 = target: T29, LIMK2 (Homo sapiens, UniProt P53671); settings: LIMK2, 1 µM; read-out: Residual Activity (%)
T29 construct: purchased ProQinase
T29 sequence (P53671 whole entry): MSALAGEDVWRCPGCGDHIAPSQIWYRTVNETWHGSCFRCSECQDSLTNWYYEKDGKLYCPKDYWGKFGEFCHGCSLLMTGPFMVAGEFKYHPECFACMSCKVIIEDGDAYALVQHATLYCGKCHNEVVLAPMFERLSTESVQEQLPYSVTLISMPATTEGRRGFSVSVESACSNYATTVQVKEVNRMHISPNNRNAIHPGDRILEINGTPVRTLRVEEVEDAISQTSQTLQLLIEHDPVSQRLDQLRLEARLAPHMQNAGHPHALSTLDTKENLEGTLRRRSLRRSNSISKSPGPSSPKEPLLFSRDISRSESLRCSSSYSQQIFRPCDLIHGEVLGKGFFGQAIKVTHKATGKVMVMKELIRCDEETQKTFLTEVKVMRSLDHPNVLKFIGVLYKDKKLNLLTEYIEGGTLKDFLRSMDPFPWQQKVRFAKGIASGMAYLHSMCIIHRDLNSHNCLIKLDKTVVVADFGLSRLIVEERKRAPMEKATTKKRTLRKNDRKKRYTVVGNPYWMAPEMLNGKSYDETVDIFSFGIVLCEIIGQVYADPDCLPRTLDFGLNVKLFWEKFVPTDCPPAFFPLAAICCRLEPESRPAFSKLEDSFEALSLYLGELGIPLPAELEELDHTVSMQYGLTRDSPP
Protocol: as §1, §2, §3, §4

COc1ccc(-c2cc(C(=O)Nc3cc(-c4c(-c5ccc(F)cc5)noc4C(C)C)ccn3)n(CC3NCC(O)C3O)c2)cc1 (centres unmarked) [29d] was tested, and the remaining activity at 1 µM (SGK1) was 102%, the remaining activity at 1 µM (PAK4) was 92% and the remaining activity at 1 µM (BMX) was 96%. For the same compound, the remaining activity at 1 µM (HIPK3) was 109%, the remaining activity at 1 µM (MEK1) was 90% and the remaining activity at 1 µM (ACK1) was 96%. The remaining activity at 1 µM (PKC-iota) was 88%, the remaining activity at 1 µM (MLK4) was 112% and the remaining activity at 1 µM (JAK3) was 81%. For the same compound, the remaining activity at 1 µM (MYLK2) was 97%, the remaining activity at 1 µM (PRK2) was 88% and the remaining activity at 1 µM (PAK2) was 107%. For the same compound, the remaining activity at 1 µM (p38-delta) was 99%, the remaining activity at 1 µM (JNK3) was 15% and the remaining activity at 1 µM (CLK2) was 116%. For the same compound, the remaining activity at 1 µM (PDGFR-beta) was 91%, the remaining activity at 1 µM (IRAK1) was 91% and the remaining activity at 1 µM (DAPK1) was 101%. For the same compound, the remaining activity at 1 µM (ROS) was 88%, the remaining activity at 1 µM (AKT1 aa106-480) was 84% and the remaining activity at 1 µM (STK39) was 110%. The remaining activity at 1 µM (HIPK1) was 98%, the remaining activity at 1 µM (RPS6KA5) was 101% and the remaining activity at 1 µM (IKK-epsilon) was 94%. For the same compound, the remaining activity at 1 µM (NEK7) was 116%, the remaining activity at 1 µM (SRPK1) was 105% and the remaining activity at 1 µM (ACV-R2B) was 127%. The remaining activity at 1 µM (EPHA3) was 118% and the remaining activity at 1 µM (LIMK2) was 98%.
